From PubChem BioAssay (NCI)
Where “and” joins values, the source holds several entries; their conditions need not be identical. Identical values can stand only once.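 Interpolation was linear, between the two tested concentrations surrounding the appropriate level; five concentrations were tested over 48 hours in 96-well plates. Abbreviation: GI50, concentration required for 50% inhibition of growth. TGI: total growth inhibition.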

How the values were obtained:
Experiment in all cases: NCI tumour cell line growth inhibition, 48 h
[1] = system: IGROV1 ovarian
[2] = system: HT29 colon
[3] = system: NCI-H522 lung
[4] = system: OVCAR-3 ovarian
[5] = system: SK-MEL-28 melanoma
[6] = system: HOP-62 NSCLC
[7] = system: RPMI-8226 leukemia
[8] = system: HCT-116 colon
[9] = system: SK-MEL-5 melanoma
[10] = system: SN12K1 renal
[11] = system: SF-268 CNS
[12] = system: P388 leukemia
[13] = system: LOX IMVI melanoma
[14] = system: K-562 leukemia
[15] = system: A549 NSCLC
[16] = system: A498 renal
[17] = system: DLD-1 colon
[18] = system: HL-60(TB) leukemia
[19] = system: UACC-62 melanoma
[20] = system: DMS 273 small cell lung
[21] = system: NCI-H460 lung
[22] = system: SK-MEL-2 melanoma
[23] = system: SNB-19 CNS
[24] = system: MCF7 breast
[25] = system: COLO 205 colon
[26] = system: SF-539 CNS
[27] = system: HCC-2998 colon
[28] = system: KM12 colon
[29] = system: OVCAR-4 ovarian
[30] = system: SK-OV-3 ovarian
[31] = system: MOLT-4 leukemia
[32] = system: NCI-H226 lung
[33] = system: P388/ADR leukemia
[34] = system: HOP-18 NSCLC
[35] = system: EKVX NSCLC
[36] = system: UO-31 renal
[37] = system: UACC-257 melanoma
[38] = system: OVCAR-5 ovarian
[39] = system: RXF 393 renal
[40] = system: CCRF-CEM leukemia
[41] = system: U251 CNS
[42] = system: M19-MEL melanoma
[43] = system: MALME-3M melanoma
[44] = system: NCI/ADR-RES ovarian
[45] = system: DMS 114 small cell lung
[46] = system: CAKI-1 renal
[47] = system: NCI-H23 lung
[48] = system: SF-295 CNS
[49] = system: HCT-15 colon
[50] = system: KM20L2 colon
[51] = system: HOP-92 NSCLC
[52] = system: SN12C renal
[53] = system: SW-620 colon
[54] = system: SNB-75 CNS
[55] = system: SNB-78 CNS
[56] = system: XF 498 CNS
[57] = system: OVCAR-8 ovarian
[58] = system: 786-0 renal
[59] = system: ACHN renal
[60] = system: SR leukemia
[61] = system: TK-10 renal
[62] = system: LXFL 529 NSCLC
[63] = system: M14 melanoma
[64] = system: RXF-631 renal

For `N/C(=N\N=C/c1ccc(O)c(O)c1O)NO`, the TGI [1] was > 100 µM, the TGI [2] was 35.1 µM and the TGI [3] was 52.9 µM. The TGI [4] was 51 µM, the TGI [5] was > 100 µM and the TGI [6] was > 56.4 µM. For the same compound, the TGI [7] was > 100 µM, the TGI [8] was > 59.6 µM and the TGI [9] was 45.1 µM. The TGI [10] was 34.7 µM, the TGI [11] was > 100 µM and the TGI [12] was 29.4 µM. The TGI [13] was 33.9 µM, the TGI [14] was 48 µM and the TGI [15] was > 100 µM. The TGI [16] was > 100 µM, the TGI [17] was 51.2 µM and the TGI [18] was 41.4 µM. The TGI [19] was 41.5 µM, the TGI [20] was 18.5 µM and the TGI [21] was 32.4 µM. The TGI [22] was > 69.8 µM, the TGI [23] was > 100 µM and the TGI [24] was 32.9 µM. For the same compound, the TGI [25] was 17.6 µM, the TGI [26] was > 100 µM and the TGI [27] was 96.6 µM. The TGI [28] was 72.5 µM, the TGI [29] was 25.5 µM and the TGI [30] was > 100 µM. For the same compound, the TGI [31] was > 66.6 µM, the TGI [32] was > 77 µM and the TGI [33] was 41.6 µM. The TGI [34] was > 100 µM, the TGI [35] was > 100 µM and the TGI [36] was > 100 µM. The TGI [37] was > 100 µM, the TGI [38] was > 73.6 µM and the TGI [39] was 33.5 µM. For the same compound, the TGI [40] was > 58.1 µM, the TGI [41] was > 83.6 µM and the TGI [42] was 48.1 µM. For the same compound, the TGI [43] was > 100 µM, the TGI [44] was 40.3 µM and the TGI [45] was 54.8 µM. The TGI [46] was 55.3 µM, the TGI [47] was 68.4 µM and the TGI [48] was > 40 µM. For the same compound, the TGI [49] was 34.5 µM, the TGI [50] was 82.5 µM and the TGI [51] was > 100 µM. For the same compound, the TGI [52] was 34.9 µM, the TGI [53] was 39.1 µM and the TGI [54] was > 46.5 µM. For the same compound, the TGI [55] was > 79.4 µM, the TGI [56] was > 100 µM and the TGI [57] was > 54.1 µM.
For `O=C(N/C(=C\c1cc(Cl)ccc1Cl)c1nc2[nH]c(=S)[nH]c(=O)c2[nH]1)c1ccccc1`, the TGI [58] was 32.2 µM, the TGI [1] was > 70.6 µM and the TGI [2] was 39.6 µM. For the same compound, the TGI [3] was > 100 µM, the TGI [4] was > 100 µM and the TGI [5] was > 83.5 µM. For the same compound, the TGI [6] was > 100 µM, the TGI [7] was 42.7 µM and the TGI [8] was 21.3 µM. For the same compound, the TGI [9] was > 100 µM, the TGI [11] was > 100 µM and the TGI [59] was > 100 µM. The TGI [13] was 91.6 µM, the TGI [14] was > 62.6 µM and the TGI [15] was > 100 µM. The TGI [16] was > 100 µM, the TGI [17] was > 64.7 µM and the TGI [18] was 36.3 µM. For the same compound, the TGI [19] was > 92.9 µM, the TGI [21] was > 100 µM and the TGI [22] was > 100 µM. The TGI [23] was > 100 µM, the TGI [25] was > 100 µM and the TGI [26] was > 76.7 µM. For the same compound, the TGI [27] was 30.7 µM, the TGI [60] was > 100 µM and the TGI [28] was 73.6 µM. For the same compound, the TGI [29] was > 100 µM, the TGI [61] was > 100 µM and the TGI [30] was > 100 µM. For the same compound, the TGI [31] was > 80.8 µM, the TGI [32] was > 100 µM and the TGI [62] was 45.2 µM. The TGI [35] was > 79.6 µM, the TGI [36] was > 76.4 µM and the TGI [63] was > 56.5 µM. For the same compound, the TGI [38] was > 100 µM, the TGI [39] was 41.5 µM and the TGI [64] was > 82.7 µM. For the same compound, the TGI [40] was 69.7 µM, the TGI [41] was > 76.1 µM and the TGI [42] was > 68.6 µM. The TGI [43] was > 100 µM, the TGI [45] was > 82.5 µM and the TGI [46] was > 100 µM. For the same compound, the TGI [47] was > 65.8 µM, the TGI [48] was > 100 µM and the TGI [49] was > 51 µM. The TGI [50] was > 100 µM, the TGI [51] was > 75.1 µM and the TGI [52] was > 66.6 µM. The TGI [53] was 36.5 µM, the TGI [54] was > 100 µM and the TGI [55] was > 100 µM. For the same compound, the TGI [56] was > 100 µM and the TGI [57] was > 71.8 µM.
`C=C1C(=O)[C@@]23CC[C@H]4[C@@](C)(CCC[C@@]4(C)C(=O)OC)[C@@H]2CC[C@]1(O)C3` was tested, and the TGI [1] was 3.07 µM and 3 µM, the GI50 [2] was 0.911 µM and the TGI [2] was 3.14 µM and 2.71 µM. For the same compound, the TGI [3] was 2.94 µM, the TGI [4] was 3.48 µM and 3.25 µM and the TGI [5] was 3.24 µM and 3.32 µM. For the same compound, the TGI [6] was 34.7 µM, the TGI [7] was 0.969 µM and the TGI [8] was 2.21 µM and 2.17 µM. The TGI [9] was 3.65 µM, the GI50 [10] was 1.67 µM and the TGI [10] was 3.15 µM and 2.82 µM. For the same compound, the GI50 [11] was 1.55 µM, the TGI [11] was 3 µM and 3.35 µM and the TGI [12] was 0.424 µM. For the same compound, the GI50 [13] was 1.34 µM, the TGI [13] was 2.64 µM and 2.22 µM and the GI50 [14] was 0.463 µM. For the same compound, the TGI [15] was 10.4 µM and 10.6 µM, the GI50 [16] was 1.49 µM and the TGI [16] was 3.09 µM. The TGI [17] was 1.33 µM, the GI50 [18] was 0.27 µM and the TGI [18] was 1.35 µM and 0.967 µM. For the same compound, the GI50 [19] was 1.33 µM, the TGI [19] was 2.78 µM and 2.95 µM and the GI50 [20] was 1.32 µM. For the same compound, the TGI [20] was 2.66 µM and 3.08 µM, the GI50 [21] was 1.8 µM and the TGI [21] was 3.45 µM and 13 µM. For the same compound, the GI50 [22] was 1.5 µM, the TGI [22] was 2.82 µM and 3.12 µM and the GI50 [23] was 4.79 µM. For the same compound, the TGI [23] was 16.6 µM and 27.5 µM, the GI50 [24] was 0.326 µM and the TGI [24] was 1.35 µM and 3.79 µM. For the same compound, the TGI [25] was 3.83 µM and 3.18 µM, the GI50 [26] was 3.53 µM and the TGI [26] was 11.2 µM and 3.18 µM. For the same compound, the TGI [27] was 8.55 µM, the GI50 [28] was 1.97 µM and the TGI [28] was 3.6 µM and 5.81 µM. The GI50 [29] was 1.69 µM, the TGI [29] was 3.12 µM and 3.31 µM and the TGI [30] was 33.4 µM. For the same compound, the TGI [31] was 0.98 µM, the GI50 [32] was 1.78 µM and the TGI [32] was 3.38 µM and 7.45 µM. The TGI [33] was 0.224 µM, the TGI [34] was 3.62 µM and 3.51 µM and the TGI [35] was 3.5 µM. The GI50 [36] was 1.63 µM, the TGI [36] was 3 µM and 4.03 µM and the GI50 [37] was 1.97 µM. The TGI [37] was 3.42 µM and 3.11 µM, the GI50 [38] was 3.95 µM and the TGI [38] was 11.8 µM and 3.54 µM. For the same compound, the GI50 [39] was 3.06 µM, the TGI [39] was 7.97 µM and the TGI [40] was > 100 µM. The GI50 [41] was 2.2 µM, the TGI [41] was 4.67 µM and 11.3 µM and the GI50 [42] was 1.13 µM. The TGI [42] was 2.46 µM and 2.91 µM, the GI50 [43] was 2.51 µM and the TGI [43] was 9.8 µM. The TGI [44] was 2.87 µM, the TGI [46] was 2.96 µM and the GI50 [47] was 2.41 µM. For the same compound, the TGI [47] was 5.05 µM and 2.96 µM, the GI50 [48] was 9.14 µM and the TGI [48] was 21.9 µM and 18.1 µM. The TGI [49] was 2.85 µM and 2.71 µM, the GI50 [50] was 1.91 µM and the TGI [50] was 3.83 µM. For the same compound, the GI50 [51] was 1.48 µM, the TGI [51] was 2.88 µM and 3.21 µM and the TGI [52] was 3.06 µM and 3.23 µM. The GI50 [53] was 0.878 µM, the TGI [53] was 2.84 µM and 1.85 µM and the GI50 [54] was 3.69 µM. For the same compound, the TGI [54] was 12 µM and 6.94 µM, the TGI [56] was 3.17 µM and 3.15 µM and the TGI [57] was 2.96 µM and 2.85 µM.
